# Measurements from patent US11292801B2, “Calpain modulators and therapeutic uses thereof” (Blade Therapeutics, Inc., priority 2016, dated 2022).
# Assays:
# Human Calpain 1/NS1 = target: T1, Human Calpain 1/NS1 (Homo sapiens, UniProt P07384); assay: Biochemical inhibition of calpain 1, continuous fluorescence (FRET substrate) assay; conditions: mean, read-out: Human Calpain 1/NS1 IC50 (nM)_MEAN
# T1 sequence (P07384 1-714): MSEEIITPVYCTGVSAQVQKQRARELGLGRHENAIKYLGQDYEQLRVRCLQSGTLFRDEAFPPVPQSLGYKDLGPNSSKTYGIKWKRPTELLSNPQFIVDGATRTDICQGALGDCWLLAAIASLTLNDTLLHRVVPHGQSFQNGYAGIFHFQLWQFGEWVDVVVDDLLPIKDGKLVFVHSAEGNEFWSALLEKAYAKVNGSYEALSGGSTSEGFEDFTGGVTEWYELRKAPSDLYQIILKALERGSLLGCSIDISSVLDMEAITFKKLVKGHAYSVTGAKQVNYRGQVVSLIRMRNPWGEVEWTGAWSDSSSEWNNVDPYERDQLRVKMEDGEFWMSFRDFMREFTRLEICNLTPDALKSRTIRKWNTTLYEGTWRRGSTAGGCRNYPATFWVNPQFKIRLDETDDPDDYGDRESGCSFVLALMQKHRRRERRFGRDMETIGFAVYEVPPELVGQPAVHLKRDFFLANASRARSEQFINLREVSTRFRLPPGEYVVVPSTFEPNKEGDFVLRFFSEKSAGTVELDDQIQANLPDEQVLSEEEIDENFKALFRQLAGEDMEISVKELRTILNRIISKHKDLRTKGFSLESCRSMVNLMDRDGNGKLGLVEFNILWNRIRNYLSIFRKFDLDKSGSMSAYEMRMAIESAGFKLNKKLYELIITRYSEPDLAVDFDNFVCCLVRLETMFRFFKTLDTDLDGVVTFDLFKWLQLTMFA
# T1 sequence (P04632 1-268 partner): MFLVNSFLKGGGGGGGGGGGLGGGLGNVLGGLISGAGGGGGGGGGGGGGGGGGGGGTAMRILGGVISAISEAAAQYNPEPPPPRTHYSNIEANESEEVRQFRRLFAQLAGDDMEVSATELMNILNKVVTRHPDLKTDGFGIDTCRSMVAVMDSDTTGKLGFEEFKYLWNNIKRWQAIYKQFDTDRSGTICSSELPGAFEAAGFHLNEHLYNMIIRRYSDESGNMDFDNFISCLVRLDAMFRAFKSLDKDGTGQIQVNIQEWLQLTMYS
# Summary of the method: (§1)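 Continuous FRET assay with 5-FAM/QXL520 peptide substrate in 50 mM Tris pH ~7.5, 100 mM NaCl, 1 mM DTT. Enzyme preincubated with inhibitor at 25C; reaction started with substrate plus CaCl2, read at 490/520 nm for 10 min. Rates from slopes over 1-5 min, IC50 from 4-parameter logistic fit.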
# Human Calpain 2/NS1 = target: T2, Human Calpain 2/NS1 (Homo sapiens, UniProt P17655); assay: Biochemical inhibition of calpain 2, continuous fluorescence (FRET substrate) assay; conditions: mean, read-out: Human Calpain 2/NS1 IC50 (nM)_MEAN
# T2 sequence (P17655 1-700): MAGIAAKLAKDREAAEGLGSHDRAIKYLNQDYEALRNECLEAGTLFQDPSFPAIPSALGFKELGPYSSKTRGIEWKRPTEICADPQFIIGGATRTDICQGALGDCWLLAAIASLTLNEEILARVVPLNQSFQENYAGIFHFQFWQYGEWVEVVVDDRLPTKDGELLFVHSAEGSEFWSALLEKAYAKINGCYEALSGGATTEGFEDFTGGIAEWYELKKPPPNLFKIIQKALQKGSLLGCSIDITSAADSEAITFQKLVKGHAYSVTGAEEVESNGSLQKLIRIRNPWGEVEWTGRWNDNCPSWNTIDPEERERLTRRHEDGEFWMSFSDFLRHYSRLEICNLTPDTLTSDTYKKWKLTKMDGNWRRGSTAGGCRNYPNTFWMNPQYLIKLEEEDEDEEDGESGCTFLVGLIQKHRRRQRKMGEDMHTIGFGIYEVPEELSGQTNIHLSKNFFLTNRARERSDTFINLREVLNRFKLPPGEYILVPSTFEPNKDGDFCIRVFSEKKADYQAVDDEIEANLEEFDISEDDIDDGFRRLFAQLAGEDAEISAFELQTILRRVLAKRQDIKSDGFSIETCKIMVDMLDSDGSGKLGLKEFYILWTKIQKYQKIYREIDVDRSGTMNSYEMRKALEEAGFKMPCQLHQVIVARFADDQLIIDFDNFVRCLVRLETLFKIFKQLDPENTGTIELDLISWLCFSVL
# T2 sequence (P04632 1-268 partner): T1 sequence (P04632 1-268 partner)
# Summary of the method: as §1
# Human Calpain 9/NS1 = target: T3, Human Calpain 9/NS1 (Homo sapiens, UniProt O14815); assay: Biochemical inhibition of calpain 9, continuous fluorescence (FRET substrate) assay; conditions: mean, read-out: Human Calpain 9/NS1 IC50 (nM)_MEAN
# T3 sequence (O14815 1-690): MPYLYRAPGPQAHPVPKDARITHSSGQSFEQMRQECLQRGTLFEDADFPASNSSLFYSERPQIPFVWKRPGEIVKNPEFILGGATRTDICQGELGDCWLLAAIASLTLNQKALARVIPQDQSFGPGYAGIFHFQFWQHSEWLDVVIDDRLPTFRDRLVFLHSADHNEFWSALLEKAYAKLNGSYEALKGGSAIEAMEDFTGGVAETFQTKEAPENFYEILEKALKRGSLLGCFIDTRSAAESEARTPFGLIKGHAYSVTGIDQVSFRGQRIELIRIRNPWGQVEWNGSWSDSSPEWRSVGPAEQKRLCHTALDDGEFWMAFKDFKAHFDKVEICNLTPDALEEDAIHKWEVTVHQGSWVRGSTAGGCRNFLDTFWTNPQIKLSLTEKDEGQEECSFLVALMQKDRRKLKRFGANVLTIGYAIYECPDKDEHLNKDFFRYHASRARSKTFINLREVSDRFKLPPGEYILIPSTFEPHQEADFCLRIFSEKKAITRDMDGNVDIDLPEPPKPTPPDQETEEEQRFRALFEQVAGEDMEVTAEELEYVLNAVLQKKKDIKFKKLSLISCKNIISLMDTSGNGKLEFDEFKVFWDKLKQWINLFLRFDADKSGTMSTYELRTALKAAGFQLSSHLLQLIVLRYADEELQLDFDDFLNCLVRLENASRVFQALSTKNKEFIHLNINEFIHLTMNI
# T3 sequence (P04632 1-268 partner): T1 sequence (P04632 1-268 partner)
# Summary of the method: as §1
SMILES,IC50 (Human Calpain 1/NS1) [nM],IC50 (Human Calpain 2/NS1) [nM],IC50 (Human Calpain 9/NS1) [nM]
"O=C[C@@H]1Cc2ccc(cc2)CC=CCc2cccc(c2)-c2ccn(n2)-c2ncccc2C(=O)N1 [Compound 75, (2^2E,10S)-12-oxo-2^1H-11-aza-1(2,3)-pyridina-2(1,3)-pyrazola-3(1,3),8(1,4)-dibenzenacyclododecaphan-5-ene-10-carbaldehyde]",< 3000,< 3000,< 3000
"O=C[C@@H]1Cc2ccc(cc2)CCCCc2ccc3nn(cc3c2)-c2ncccc2C(=O)N1 [Compound 76, (1^3Z,1^4Z,5S)-3-oxo-1^2H-4-aza-1(2,5)-indazola-2(2,3)-pyridina-7(1,4)-benzenacycloundecaphane-5-carbaldehyde]",< 3000,< 3000,< 3000
"O=C(NCCc1ccc(Cl)cc1)C(=O)[C@@H]1C/C=C\COCCOCc2ccccc2C(=O)N1 [Compound 77, (S,Z)—N-(4-chlorophenethyl)-2-oxo-2-(12-oxo-1,3,4,6,9,10,11,12-octahydrobenzo[f][1,4]dioxa[9]azacyclotetradecin-10-yl)acetamide]",3000 to 10000,3000 to 10000,< 3000
"O=C(NCCc1ccc(Cl)cc1)C(=O)[C@@H]1C/C=C/COCCOCc2ccccc2C(=O)N1 [Compound 78, (S,E)-N-(4-chlorophenethyl)-2-oxo-2-(12-oxo-1,3,4,6,9,10,11,12-octahydrobenzo[f][1,4]dioxa[9]azacyclotetradecin-10-yl)acetamide]",3000 to 10000,3000 to 10000,< 3000
"O=C(NC1CC1)C(=O)[C@@H]1C/C=C/COCCOCc2ccccc2C(=O)N1 [Compound 79, (S,E)-N-cyclopropyl-2-oxo-2-(12-oxo-1,3,4,6,9,10,11,12-octahydrobenzo[f][1,4]dioxa[9]azacyclotetradecin-10-yl)acetamide]",> 10000,> 10000,3000 to 10000
"O=C(NCCN1CCOCC1)C(=O)C1CCCCOCCOCc2ccccc2C(=O)N1 (stereo not drawn) [Compound 80, N-(2-morpholinoethyl)-2-oxo-2-(12-oxo-1,3,4,6,7,8,9,10,11,12-decahydrobenzo[f][1,4]dioxa[9]azacyclotetradecin-10-yl)acetamide]",> 10000,> 10000,> 10000
"O=C(NCc1ccc2c(c1)OCO2)C(=O)C1CCCCOCCOCc2ccccc2C(=O)N1 (stereo not drawn) [Compound 81, N-(benzo[d][1,3]dioxol-5-ylmethyl)-2-oxo-2-(12-oxo-1,3,4,6,7,8,9,10,11,12-decahydrobenzo[f][1,4]dioxa[9]azacyclotetradecin-10-yl)acetamide]",> 10000,3000 to 10000,< 3000
"O=C(NCCc1ccccn1)C(=O)C1CCCCOCCOCc2ccccc2C(=O)N1 (stereo not drawn) [Compound 82, 2-Oxo-2-(12-oxo-1,3,4,6,7,8,9,10,11,12-decahydrobenzo[f][1,4]dioxa[9]aza-cyclotetradecin-10-yl)-N-(2-(pyridin-2-yl)ethyl)acetamide]",> 10000,> 10000,3000 to 10000
"O=C(NCc1ccc(Cl)c(Cl)c1)C(=O)C1CCCCOCCOCc2ccccc2C(=O)N1 (stereo not drawn) [Compound 83, N-(3,4-dichlorobenzyl)-2-oxo-2-(12-oxo-1,3,4,6,7,8,9,10,11,12-decahydrobenzo[f][1,4]dioxa[9]azacyclotetradecin-10-yl)acetamide]",> 10000,3000 to 10000,< 3000

# Other lines, results leading:
IC50 (Human Calpain 1/NS1) [nM],IC50 (Human Calpain 2/NS1) [nM],IC50 (Human Calpain 9/NS1) [nM],SMILES
> 10000,3000 to 10000,< 3000,"NS(=O)(=O)c1ccc(CNC(=O)C(=O)C2CCCCOCCOCc3ccccc3C(=O)N2)cc1 (stereo not drawn) [Compound 84, 2-Oxo-2-(12-oxo-1,3,4,6,7,8,9,10,11,12-decahydrobenzo[f][1,4]dioxa[9]aza-cyclotetradecin-10-yl)-N-(4-sulfamoylbenzyl)acetamide]"
> 10000,> 10000,3000 to 10000,"C#CCNC(=O)C(=O)C1CCCCOCCOCc2ccccc2C(=O)N1 (stereo not drawn) [Compound 85, 2-Oxo-2-(12-oxo-1,3,4,6,7,8,9,10,11,12-decahydrobenzo[f][1,4]dioxa[9]aza-cyclotetradecin-10-yl)-N-(prop-2-yn-1-yl)acetamide]"
> 10000,> 10000,> 10000,"Cc1cccc(Cl)c1CNC(=O)C(=O)C1CCCCOCCOCc2ccccc2C(=O)N1 (stereo not drawn) [Compound 86, N-(2-chloro-6-methylbenzyl)-2-oxo-2-(12-oxo-1,3,4,6,7,8,9,10,11,12-decahydrobenzo[f][1,4]dioxa[9]azacyclotetradecin-10-yl)acetamide]"
> 10000,> 10000,< 3000,"O=C(NCc1ccc(OC(F)(F)F)cc1)C(=O)C1CCCCOCCOCc2ccccc2C(=O)N1 (stereo not drawn) [Compound 87, 2-Oxo-2-(12-oxo-1,3,4,6,7,8,9,10,11,12-decahydrobenzo[f][1,4]dioxa[9]aza-cyclotetradecin-10-yl)-N-(4-(trifluoromethoxy)benzyl)acetamide]"
> 10000,> 10000,< 3000,"COc1cccc(CCNC(=O)C(=O)C2CCCCOCCOCc3ccccc3C(=O)N2)c1 (stereo not drawn) [Compound 88, N-(3-methoxyphenethyl)-2-oxo-2-(12-oxo-1,3,4,6,7,8,9,10,11,12-decahydrobenzo[f][1,4]dioxa[9]azacyclotetradecin-10-yl)acetamide]"
> 10000,> 10000,< 3000,"O=C(NCCc1cccc(Cl)c1)C(=O)C1CCCCOCCOCc2ccccc2C(=O)N1 (stereo not drawn) [Compound 89, N-(3-chlorophenethyl)-2-oxo-2-(12-oxo-1,3,4,6,7,8,9,10,11,12-decahydrobenzo[f][1,4]dioxa[9]azacyclotetradecin-10-yl)acetamide]"
> 10000,3000 to 10000,< 3000,"CC(C)CCNC(=O)C(=O)C1CCCCOCCOCc2ccccc2C(=O)N1 (stereo not drawn) [Compound 90, N-isopentyl-2-oxo-2-(12-oxo-1,3,4,6,7,8,9,10,11,12-decahydrobenzo[f][1,4]dioxa[9]azacyclotetradecin-10-yl)acetamide]"
> 10000,> 10000,> 10000,"CCCNC(=O)C(=O)C1CCCCOCCOCc2ccccc2C(=O)N1 (stereo not drawn) [Compound 91, 2-Oxo-2-(12-oxo-1,3,4,6,7,8,9,10,11,12-decahydrobenzo[f][1,4]dioxa[9]azacyclotetradecin-10-yl)-N-propylacetamide]"
